The compounds below were run against T1, LPA5 (Homo sapiens, UniProt Q9H1C0) (assay: LPA receptor-mediated Ca2+ mobilization assay, LPA5). Details: agonist.
T1 construct: FLAG (N); expressed in transfected cells; host or cells: B103 rat neuroblastoma, lentiviral transduction, puromycin selection
T1 sequence (Q9H1C0 whole entry, species assumed): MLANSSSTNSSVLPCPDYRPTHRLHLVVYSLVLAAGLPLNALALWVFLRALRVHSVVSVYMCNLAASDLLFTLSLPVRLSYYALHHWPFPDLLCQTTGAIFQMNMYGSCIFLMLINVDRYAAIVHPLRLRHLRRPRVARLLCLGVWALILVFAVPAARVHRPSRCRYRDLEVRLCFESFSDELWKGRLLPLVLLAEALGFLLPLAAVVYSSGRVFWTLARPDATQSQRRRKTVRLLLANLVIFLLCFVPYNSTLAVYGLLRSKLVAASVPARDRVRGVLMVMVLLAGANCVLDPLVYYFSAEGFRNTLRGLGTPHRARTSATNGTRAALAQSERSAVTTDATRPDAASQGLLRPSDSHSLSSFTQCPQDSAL
Format: cell-based
Description: Similarity searches were performed separately using each fingerprint to quantitate similarity. Hits meeting the 80% similarity threshold from each search were ranked based on the Tanimoto coefficient measure of similarity to a target molecule NSC12404, and the top 75 unique hits from each fingerprint search were selected for further analysis. The 225 compounds selected for further analysis were clustered based on Tanimoto coefficients calculated using Molecular ACCess System-key fingerprints (MACCS keys) and evaluated using the diversity subset function implemented in MOE. This selected a diverse subset of 27 compounds for biological evaluation by choosing the middle compounds in each cluster. These 27 compounds were tested in Ca^2+ mobilization assays at a concentration of 10 μM using stable cell lines individually expressing LPA2 and also in vector-transfected control cells. Hits activating LPA2 were further tested using cells expressing the other established and putative LPA GPCRs. […] They arbitrarily selected GRI977143 for further characterization in cell-based assays.
J Biol Chem (2009) 284(25): 17304-17319). […] The cells were loaded with Fura-2-acetoxymethyl esther (Fura-2/AM) in Krebs buffer containing 0.01% pluronic acid for 30 min and rinsed with Krebs buffer before measuring Ca^2+ mobilization. The ratio of peak emissions at 510 nm after 2 min of ligand addition was determined for excitation wavelengths of 340 nm/380 nm. All samples were run in quadruplicate. […] The half maximally effective concentration (EC50), and inhibitory constant (Ki) values were calculated by fitting a sigmoid function to dose-response data points using KaleidaGraph software (version 4.1, Synergy Software; […]).
Mouse embryonic fibroblast (MEF) cells were isolated from E13.5 LPA1&2 double knockout (DKO) embryos. MEFs were transduced with empty vector or LPA2-containing lentiviruses and selected with 1.5 μg/ml puromycin. Cells were maintained in Dulbecco's modified Eagle medium (DMEM) supplemented with 10% (V/V) fetal bovine serum (FBS), 2 mM L-glutamine, 100 U/mL penicillin, and 100 μg/mL streptomycin. Serum-free medium contained 0.1% (W/V) BSA in DMEM. The rat intestinal epithelial cell line 6 (IEC-6) was obtained from the American Type Culture Collection (Rockville, Md.) at passage 13; passages 16-21 were used in all experiments. IEC-6 cells were maintained in a humidified 37° C. incubator in an atmosphere of 90% air and 10% CO2. Growth medium consisted of DMEM supplemented with 5% heat inactivated FBS, 10 μg/mL insulin, and 50 μg/mL gentamycin. The composition of the serum-starvation medium was the same as that of the full growth medium except that it contained no FBS. […]
`O=C(O)c1cc(Cl)c(Cl)cc1C(=O)Nc1ccc2c(c1)C(=O)c1ccccc1-2` [Compound H2L5547924] showed an EC50 of over 10 µM. `O=C(O)c1ccccc1C(=O)Nc1ccc2c(c1)C(=O)c1ccccc1C2=O` [Compound H2L5828102] was tested, and the EC50 was over 10 µM. `O=C(O)c1ccccc1C(=O)Nc1ccc2c(c1)C(=O)c1ccccc1-2` [NSC12404] was tested, and the EC50 was over 10 µM. For octadecenyl thiophosphate [OTP], the EC50 was 0.003 µM.
